≈ marks a conversion by molar mass, not a printed value. Blank lines part the entries; values can stand above or below the molecule they belong to.
Assays:
in vitro = settings: human, Caco-2, pH 7.4
Procedure: A transport buffer solution in the study was HBSS containing 10.0 mM of HEPSS, and had pH of 7.40±0.05. The compound to be tested was subjected to bidirectional test at 2.00 μM, and the final concentration of DMSO was required to be less than 1%. In a CO2 incubator at 37±1° C., the cell plate was stood and incubated for 2 h under CO2 at 5% […] and saturated humidity. After mixing all samples with acetonitrile containing internal standard, the mixture was centrifuged at 3200×g for 10 min. The compound was tested, 100 μL of supernatant was diluted with 100 μL of ultrapure water for LC-MS/MS analysis. The concentration of the test compound and a control compound (Digoxin as a model verification compound and ibutamoren as a positive control) in a donor solution and a receiver solution was quantified by an LC-MS/MS method using the peak area ratio of the analyte/internal standard. After transport determination, a lucifer yellow exclusion determination was carried out to determine the integrity of the Caco-2 cell monolayer.

human GHSR = molecular target: T1, human GHSR (Homo sapiens, UniProt Q92847); assay: Agonistic activity on human GHSR in human GHSR/CHO cells (FLIPR calcium); format: cell-based; settings: human GHSR/CHO stable transformant cells, Fluo-4 FLIPR
T1 construct: expressed in transfected cells
T1 sequence (Q92847 whole entry): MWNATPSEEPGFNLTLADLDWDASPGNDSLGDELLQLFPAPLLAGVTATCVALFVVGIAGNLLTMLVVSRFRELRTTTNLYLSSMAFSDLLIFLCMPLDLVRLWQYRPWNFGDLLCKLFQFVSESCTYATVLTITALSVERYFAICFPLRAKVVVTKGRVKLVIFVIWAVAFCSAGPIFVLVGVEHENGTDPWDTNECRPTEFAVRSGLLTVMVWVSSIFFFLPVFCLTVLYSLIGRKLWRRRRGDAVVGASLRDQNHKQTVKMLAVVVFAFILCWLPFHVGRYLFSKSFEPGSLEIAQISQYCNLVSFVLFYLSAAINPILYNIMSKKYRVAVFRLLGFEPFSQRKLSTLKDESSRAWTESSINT
Procedure: This method is used for determining the agonistic activity effect of the compound in the present invention on human GHSR protein expressed in human GHSR/CHO stable transformant cells.
Preparation of buffer solution: HBSS (1X): HEPES (1M)=49:1, 0.5% BSA added.
Human GHSR/CHO containing stable transformant cells were inoculated in a 384-well plate, a cell plate was taken out after overnight, the culture medium was removed, and 20 μL of buffer solution was slowly added in each well, then 20 μL of 2X Fluo-4 Direct™ No-wash Loading Buffer was added in each well. The cell plate was incubated in an incubator containing 5% of CO2 at 37° C. for 50 min, and the cell plate was taken out and placed at room temperature for 10 min. 30 μL of buffer solution was added to each well in the compound plate; an additional buffer solution plate was prepared, and 30 μL of buffer solution was added to each well. […] 10 μL of buffer solution was transferred to the cell plate, the fluorescence signal values were read. 10 μL of compound was transferred to the cell plate, the fluorescence signal values were read. The maximum-minimum values from the 91st signal point to the 230th signal point were calculated through the FLIPR program. The EC50 value of the compound could be calculated by the software using the fluorescence value corresponding to the different concentrations.

[1] = Stability Test 1 (80° C., lighting, 25° C./60% RH, 40° C./75% RH; HPLC); format: physicochemical
Procedure: • Chromatographic conditions: • Chromatographic column: C18 column; • Running time: 60 min; • UV detector: 210 nm; • Flow rate: 1.0 mL/min; • Injection volume: 5 μL.
A certain amount of crystals and amorphous raw materials were weighed and placed in liquid phase vials, and a total of 5 parts were prepared. The 5 parts were respectively placed under 80° C. (opened), 25° C./60% RH (opened), and 40° C./75% RH (opened) and in a stable lighting chamber (closed, 5000±500 Lx), and the stability under lighting for 10 days, 80° C. 1 day, and the chemical stability under 25° C. and 60% RH and under 40° C. and 75% RH for 1 week were determined by liquid phase, and the XRPD of the solid was determined.

[2] = Accelerated stability test of crystal form (Example 3, 40±2° C./75±5% RH); format: physicochemical
Procedure: The sample was taken at 0th, 1st and 3rd month for analysis, the stability of the samples was determined by liquid phase, and the crystal form was determined by XRPD.

[3] = Long-term stability test, packaged crystal form (Table 7); format: physicochemical; settings: 30±2° C./65±5% RH
Excerpt: (§1) Packaging requirements: it is needed to simulate commercially available packaging for the stability sample, the two inner layers are inner flat-bottom bags made of pharmaceutical polyethylene, the first layer of inner bag is tied and sealed, the second layer of inner bag is subjected to heat sealing, an aluminum foil bag at an outer layer is subjected to heat sealing, a package of desiccant is placed between the aluminum foil bag and the second layer of inner bag, and the package is placed in a fiber can.
The sample was taken in the 0th, 3rd and 6th months. The test items, test methods and technical requirements are detailed in Table 7, and the test results are compared with those in the 0th month.

[4] = Accelerated stability test, packaged crystal form (Table 6); format: physicochemical; settings: 40 ± 2° C./75 ± 5% RH
Excerpt: as §1
The sample was taken in the 0th, 1st, 2nd, 3rd and 6th months. The test items, test methods and technical requirements are detailed in Table 6, and the test results are compared with those in the 0th month.

[5] = Dynamic vapor sorption (DVS) hygroscopicity; format: physicochemical
Procedure: The sample was analyzed through Intrinsic DVS ([…]). The amount of test sample was about 20-30 mg. The temperature of a test room was controlled between 25±1° C., the relative humidity increased from 0% to 90% and then decreased to 0% at a rate of 10%/h, and mass data was recorded every 20 s.
The DVS curve was acquired from DVS Intrinsic through an SMS (Surface Measurement Systems). The relative humidity at 25° C. was calibrated according to deliquescent points of LiCl, Mg(NO3)2 and KCl.

[6] = Solubility test of crystal form (room temperature); format: physicochemical; settings: thermodynamic from solid
Procedure: About 5 mg of the crystal form sample was weighed and placed in an 8 mL glass bottle, and solvent was gradually added at room temperature. 10 μL of solvent was added each time until all solids were dissolved, and if 5 mL of solvent was added and the solids were not dissolved, the solvent addition was stopped.

[7] = 25° C., 60% RH (opened), 1 week
[8] = 40° C., 75% RH (opened), 1 week
[9] = Lighting (closed, 5000±500 Lx), 10 Days

Papp A→B at 2 h, 2 μM (in vitro): 0.0518 ×10⁻⁶ cm/s | Papp B→A at 2 h, 2 μM (in vitro): 8.8 ×10⁻⁶ cm/s | efflux ratio at 2 h, 2 μM (in vitro): 170 | EC50 (human GHSR): 14.6 nM
SMILES: CC(OC(=O)NC(C)(C)C(=O)N[C@H](COCc1ccccc1)C(=O)N1CCC2(CC1)CN(S(C)(=O)=O)c1ccccc12)OC(=O)C(C)C (stereo partly drawn) [Compound 1e, (4R)-7,7-dimethyl-4-(1-(methylsulfonyl)spiro[indoline-3,4′-piperidine]-1′-carbonyl)-6,9-dioxo-1-phenyl-2,10-dioxa-5,8-diazadodecane-11-ylisobutyrate]

Degradation (%) [1, 7]: 0.02% | Purity (%) [1, 7]: 99.69% | Degradation (%) [1, 8]: 0.1% | Purity (%) [1, 8]: 99.61% | Degradation (%) ([1]; 80° C. (opened), 1 Day): 0.12% | Purity (%) ([1]; 80° C. (opened), 1 Day): 99.59% | Purity (%) ([1]; Initial): 99.71% | Degradation (%) [1, 9]: 0.35% | Purity (%) [1, 9]: 99.36% | Total impurities (%) ([2]; 1 month): 0.07% | Total impurities (%) ([2]; 3 months): 0.05% | Total impurities (%) ([2]; Initial): 0.07% | Characters ([3]; 0th month): White powder | Conclusion ([3]; 0th month): Qualified | Content (anhydrous and insoluble residue)/HPLC ([3]; 0th month): 99.4% | Isomer/HPLC: Chiral purity ([3]; 0th month): 100.0% | Isomer/HPLC: Isomer 1 ([3]; 0th month): 0.05% | Moisture ([3]; 0th month): 0.2% | Related substance/HPLC: Impurity 3 ([3]; 0th month): <0.05% | Related substance/HPLC: Other impurities ([3]; 0th month): 0.05% | Related substance/HPLC: Total impurities ([3]; 0th month): 0.05% | Characters ([3]; 3rd month): White powder | Conclusion ([3]; 3rd month): Qualified | Content (anhydrous and insoluble residue)/HPLC ([3]; 3rd month): 99.9% | Isomer/HPLC: Chiral purity ([3]; 3rd month): 99.9% | Isomer/HPLC: Isomer 1 ([3]; 3rd month): 0.06% | Moisture ([3]; 3rd month): 0.1% | Related substance/HPLC: Impurity 3 ([3]; 3rd month): <0.05% | Related substance/HPLC: Other impurities ([3]; 3rd month): 0.05% | Related substance/HPLC: Total impurities ([3]; 3rd month): 0.05% | Stability under the long-term condition ([3]; 6 months vs 0th month): stable | Characters ([3]; 6th month): White powder | Conclusion ([3]; 6th month): Qualified | Content (anhydrous and insoluble residue)/HPLC ([3]; 6th month): 99.6% | Isomer/HPLC: Chiral purity ([3]; 6th month): 100.0% | Isomer/HPLC: Isomer 1 ([3]; 6th month): 0.03% | Moisture ([3]; 6th month): 0.1% | Related substance/HPLC: Impurity 3 ([3]; 6th month): <0.05% | Related substance/HPLC: Other impurities ([3]; 6th month): <0.05% | Related substance/HPLC: Total impurities ([3]; 6th month): <0.05% | New impurity peak ([3]; 6th month vs 0th month): ≤ 0.10% | Conclusion ([4]; 0th month): Qualified | Content (anhydrous and insoluble residue)/HPLC ([4]; 0th month): 99.4% | Isomer/HPLC: Chiral purity ([4]; 0th month): 100.0% | Isomer/HPLC: Isomer 1 ([4]; 0th month): 0.05% | Moisture ([4]; 0th month): 0.2% | Related substances/HPLC: Impurity 3 ([4]; 0th month): <0.05% | Related substances/HPLC: Other impurities ([4]; 0th month): 0.05% | Related substances/HPLC: Total impurities ([4]; 0th month): 0.05% | Conclusion ([4]; 1st month): Qualified | Content (anhydrous and insoluble residue)/HPLC ([4]; 1st month): 99.0% | Isomer/HPLC: Chiral purity ([4]; 1st month): 100.0% | Isomer/HPLC: Isomer 1 ([4]; 1st month): 0.04% | Moisture ([4]; 1st month): 0.1% | Related substances/HPLC: Impurity 3 ([4]; 1st month): <0.05% | Related substances/HPLC: Other impurities ([4]; 1st month): 0.05% | Related substances/HPLC: Total impurities ([4]; 1st month): 0.05% | Conclusion ([4]; 2nd month): Qualified | Content (anhydrous and insoluble residue)/HPLC ([4]; 2nd month): 98.9% | Isomer/HPLC: Chiral purity ([4]; 2nd month): 100.0% | Isomer/HPLC: Isomer 1 ([4]; 2nd month): 0.04% | Moisture ([4]; 2nd month): 0.2% | Related substances/HPLC: Impurity 3 ([4]; 2nd month): <0.05% | Related substances/HPLC: Other impurities ([4]; 2nd month): 0.05% | Related substances/HPLC: Total impurities ([4]; 2nd month): 0.05% | Conclusion ([4]; 3rd month): Qualified | Content (anhydrous and insoluble residue)/HPLC ([4]; 3rd month): 98.9% | Isomer/HPLC: Chiral purity ([4]; 3rd month): 100.0% | Isomer/HPLC: Isomer 1 ([4]; 3rd month): 0.04% | Moisture ([4]; 3rd month): 0.1% | Related substances/HPLC: Impurity 3 ([4]; 3rd month): <0.05% | Related substances/HPLC: Other impurities ([4]; 3rd month): <0.05% | Related substances/HPLC: Total impurities ([4]; 3rd month): <0.05% | Stability under the accelerated condition ([4]; 6 months vs 0th month): stable | Conclusion ([4]; 6th month): Qualified | Content (anhydrous and insoluble residue)/HPLC ([4]; 6th month): 99.5% | Isomer/HPLC: Chiral purity ([4]; 6th month): 100.0% | Isomer/HPLC: Isomer 1 ([4]; 6th month): 0.04% | Moisture ([4]; 6th month): 0.1% | Related substances/HPLC: Impurity 3 ([4]; 6th month): <0.05% | Related substances/HPLC: Other impurities ([4]; 6th month): <0.05% | Related substances/HPLC: Total impurities ([4]; 6th month): <0.05% | New impurity peak ([4]; 6th month vs 0th month): ≤ 0.10% | Moisture adsorption (DVS) ([5]; 25° C./80% RH): 0.10% | Hygroscopicity (DVS) ([5]; 80% humidity, 25° C.): almost had no hygroscopicity | Solid form by XRPD before and after DVS test ([5]; XRPD before vs after DVS): the crystal form did not vary | solubility ([6]; organic solvent or mixture, Acetone): ~117 mg/mL (≈ 170 mM) | solubility ([6]; organic solvent or mixture, Acetonitrile): ~128 mg/mL (≈ 186 mM) | solubility ([6]; organic solvent or mixture, Dichloromethane): ~251 mg/mL (≈ 365 mM) | solubility ([6]; organic solvent or mixture, Ethanol): ~20.9 mg/mL (≈ 30.4 mM) | solubility ([6]; organic solvent or mixture, Ethyl acetate): ~133 mg/mL (≈ 193 mM) | solubility ([6]; organic solvent or mixture, Methyl tert-butyl ether): ~0.7 mg/mL (≈ 1.02 mM) | solubility ([6]; organic solvent or mixture, N-heptane): < 0.6 mg/mL | solubility ([6]; organic solvent or mixture, Tetrahydrofuran): ~232 mg/mL (≈ 339 mM) | solubility ([6]; organic solvent or mixture, Toluene): ~13.2 mg/mL (≈ 19.2 mM) | solubility ([6]; Water): < 0.7 mg/mL
SMILES: CC(C)C(=O)O[C@@H](C)OC(=O)NC(C)(C)C(=O)N[C@H](COCc1ccccc1)C(=O)N1CCC2(CC1)CN(S(C)(=O)=O)c1ccccc12 [crystal form, (4R,11R)-7,7-dimethyl-4-(1-(methylsulfonyl)spiro[indoldoline-3,4′-piperidine]-1′-carbonyl)-6,9-dioxo-1-phenyl-2,10-dioxa-5,8-diazadodecane-11-ylisobutyrate]
